Reference: EP4744680A1, “TARGETED CHEMICAL DRUG AND PREPARATION METHOD THEREFOR, PHARMACEUTICAL COMPOSITION, AND USE OF TARGETED CHEMICAL DRUG” (Bai Yao Zhi Da (Beijing) Nanobio Technology Co., Ltd., priority 2023, dated 2025)

Key:
[1] = Body weight in the N87 study of the Example 5 drug; type: in vivo, mouse (BALB/c nude); settings: 0.12mg i.v. (tail vein) once every 5 days, 5 administrations
Method: Body weight is measured three times per week.Data are recorded and changes analyzed.

A549 lung carcinoma = experiment: In-vivo efficacy study in the A549 mouse lung carcinoma model (drug of Example 3); parameters: species or system mouse (BALB/c-nu)
Method: • Species/strain: BALB/c nude (BALB/c-nu) • Age: 6-7 weeks • Sex: Male • Body weight: 16-18 g
The day of implantation was designated as Day 0 (D0).When the tumor volume reached approximately 100.0 mm^3 (D5), animals with poor tumor take were excluded, the remaining animals were randomized by tumor volume, and dosing commenced on the day of randomization. 2).Dosing regimen: Table 31
Tumor size is measured twice per week using a vernier caliper. The long diameter (a) and short diameter (b) are recorded. Tumor volume is calculated as: V=0.5×a×b^2.
RTV = Vt /V0 , [formula] where V0 is the tumor volume at grouping/first dosing (D0), and Vt is the tumor volume at each measurement time point.

[2] = test system: N87 human gastric carcinoma; experiment: Comparative in-vivo efficacy test in the N87 mouse gastric carcinoma model (drugs of Example 5 and Example 7); parameters: species or system mouse (BALB/c-nu)
Excerpt: • Species/strain: BALB/c nude (BALB/c-nu) • Age: 6-8 weeks • Sex: Male • Body weight: 17-19 g
1).Inoculation and grouping: For the N87 human gastric carcinoma model, male BALB/c-nu mice (17.0-19.0 g) were used.Under aseptic conditions, N87 tumor tissue was excised and cut into 2.0 mm × 2.0 mm × 2.0 mm tumor blocks, which were implanted subcutaneously into the left axillary dorsal region of each nude mouse. The day of implantation was designated as Day 0 (D0).When tumor volume reached approximately 250.0 mm^3 (D6), animals with poor tumor take were excluded, and the remaining animals were randomized into groups according to tumor volume; dosing commenced on the day of randomization. 2).Dosing regimen: Table 27
Tumor size is measured three times per week using a vernier caliper. The long diameter (a) and short diameter (b) are recorded. Tumor volume is calculated as: V=0.5×a×b^2
RTV = Vt /V0 , [formula] where V0 is the tumor volume at grouping/first dosing (D0) and Vt is the tumor volume at each measurement time point.

[3] = Body weight in the comparative N87 study; type: in vivo, mouse (BALB/c-nu); settings: 0.12mg i.v. (tail vein) once weekly for 6 weeks
N87 gastric cancer = experiment: In vivo antitumor efficacy in an N87 gastric cancer mouse model (drug of Example 5); parameters: species or system mouse (BALB/c nude); settings: 0.12mg i.v. (tail vein) once every 5 days, 5 administrations
Method: • 1. Cell culture and preparation: Thaw cells and seed into the corresponding medium (RPMI-1640 basal medium + 10% FBS + 1% penicillin/streptomycin [P/S]).
• a) Discard the culture medium and gently rinse the cells with PBS twice. • b) Add an appropriate volume of 0.25% trypsin, digest in a 37 °C incubator for about 1-2 min until cells visibly round up; then add complete medium (RPMI-1640 + 10% FBS + 1% P/S) to neutralize the trypsin.Gently pipette to detach cells and subculture at the desired split ratio. • c) Split ratio: 1: 2-1: 4; the split ratio used in this experiment is 1: 3. • d) Passage frequency: Every 2-3 days, depending on seeding density and growth.
• a) Harvest cells in logarithmic growth phase (~80-90% confluence recommended); • b) After trypsinization, add complete medium to terminate digestion; collect the suspension into centrifuge tubes and centrifuge at 1, 000 rpm for 5 min; • c) Wash the cell pellet twice with pre-chilled PBS and centrifuge each time; • d) Resuspend the pellet in PBS or serum-free medium to a final concentration of 2 × 10^7 cells/mL.
• Injection site: Subcutaneous, right axillary-dorsal region. • Inoculum: 3 × 10^6 cells/mouse; 30 mice inoculated. • Injection volume: 0.1 mL. • Method: Tumor cell inoculation.
Thaw and expand N87 cells to the required quantity; adjust the cell concentration to 3 × 10^7 cells/mL with sterile PBS and keep on ice until use. Using a single-use sterile 1 mL syringe, draw 0.1 mL of the cell suspension and inject subcutaneously into the right axillary-dorsal region of each mouse. The day of inoculation is designated Day 0 (D0).
• a)lmmediately before injection, thoroughly disperse the tumor cell suspension by pipetting to prevent cell clumping, which can reduce viability; • b)Restrain the mouse by grasping the dorsal neck skin with the thumb and forefinger while holding the tail with the little finger; • c)Using a disposable 1 mL syringe, inject the suspension subcutaneously; advance the needle slightly deeper under the skin (approximately 1 cm) to minimize leakage of the suspension from the needle tract;
Tumor size is measured three times per week using a vernier caliper. The long diameter (a) and the short diameter (b) are recorded. Tumor volume is calculated as: V=0.5×a×b^2.
RTV is calculated as: RTV = Vt/V0, where V0 is the tumor volume at grouping and initial dosing (D0), and Vt is the tumor volume at each measurement time point.
IRTW (%) = (Wcontrol group−Wtreatment group)/Wcontrol group × 100, [formula] where W denotes tumor weight.IRTW%>60% is considered effective.

[4] = Body weight and general condition in the U251 study; type: in vivo, mouse (BALB/c nude); settings: Group 3, around D10 post-dosing; 6mg/Kg i.v. twice weekly; possibly due to drug toxicity
Method: The relationship between body weight change and the dosing regimen is recorded.Survival and health status are also monitored, including activity levels and food intake during the dosing period. • c) Tumor and Organ Imaging: At the end of the dosing period, mice are euthanized, and their brain, heart, liver, spleen, lungs, and kidneys are excised.

[5] = end of the study (D32 or D25), targeted drug: high- and medium-dose
[6] = 41 days post-N87 inoculation, 0.12mg i.v. (tail vein) once weekly for 6 weeks

## COc1cccc2c1C(=O)c1c(O)c3c(c(O)c1C2=O)C[C@@](O)(C(=O)CO)C[C@@H]3O[C@H]1C[C@H](N)[C@@H](O)[C@H](C)O1 [Epirubicin drug substance (API), Epirubicin]
[1]
  Body-weight difference (g) between Day 23 and Day 5: -3.84 g
A549 lung carcinoma; Day 8, 0.08mg i.v. (tail vein) twice weekly for 5 weeks
  Tumor growth inhibition rate (TGI, %) at different days post-inoculation: 19.90%
A549 lung carcinoma; Day 8, 0.12mg i.v. (tail vein) twice weekly for 5 weeks
  Tumor growth inhibition rate (TGI, %) at different days post-inoculation: 17.42%
A549 lung carcinoma; Day 8, 0.14mg i.v. (tail vein) twice weekly for 5 weeks
  Tumor growth inhibition rate (TGI, %) at different days post-inoculation: 17.47%
A549 lung carcinoma; Day 11, 0.08mg i.v. (tail vein) twice weekly for 5 weeks
  Tumor growth inhibition rate (TGI, %) at different days post-inoculation: 17.02%
A549 lung carcinoma; Day 11, 0.12mg i.v. (tail vein) twice weekly for 5 weeks
  Tumor growth inhibition rate (TGI, %) at different days post-inoculation: 15.55%
A549 lung carcinoma; Day 11, 0.14mg i.v. (tail vein) twice weekly for 5 weeks
  Tumor growth inhibition rate (TGI, %) at different days post-inoculation: 28.43%
A549 lung carcinoma; Day 14, 0.08mg i.v. (tail vein) twice weekly for 5 weeks
  Tumor growth inhibition rate (TGI, %) at different days post-inoculation: -12.27%
A549 lung carcinoma; Day 14, 0.12mg i.v. (tail vein) twice weekly for 5 weeks
  Tumor growth inhibition rate (TGI, %) at different days post-inoculation: -4.64%
A549 lung carcinoma; Day 14, 0.14mg i.v. (tail vein) twice weekly for 5 weeks
  Tumor growth inhibition rate (TGI, %) at different days post-inoculation: 6.41%
A549 lung carcinoma; Day 17, 0.08mg i.v. (tail vein) twice weekly for 5 weeks
  Tumor growth inhibition rate (TGI, %) at different days post-inoculation: 10.74%
A549 lung carcinoma; Day 17, 0.12mg i.v. (tail vein) twice weekly for 5 weeks
  Tumor growth inhibition rate (TGI, %) at different days post-inoculation: 28.37%
A549 lung carcinoma; Day 17, 0.14mg i.v. (tail vein) twice weekly for 5 weeks
  Tumor growth inhibition rate (TGI, %) at different days post-inoculation: 31.81%
A549 lung carcinoma; Day 22, 0.08mg i.v. (tail vein) twice weekly for 5 weeks
  Tumor growth inhibition rate (TGI, %) at different days post-inoculation: 10.11%
A549 lung carcinoma; Day 22, 0.12mg i.v. (tail vein) twice weekly for 5 weeks
  Tumor growth inhibition rate (TGI, %) at different days post-inoculation: 8.93%
A549 lung carcinoma; Day 22, 0.14mg i.v. (tail vein) twice weekly for 5 weeks
  Tumor growth inhibition rate (TGI, %) at different days post-inoculation: 12.37%
A549 lung carcinoma; Day 25, 0.12mg i.v. (tail vein) twice weekly for 5 weeks
  Tumor growth inhibition rate (TGI, %) at different days post-inoculation: 41.13%
A549 lung carcinoma; Day 25, 0.14mg i.v. (tail vein) twice weekly for 5 weeks
  Tumor growth inhibition rate (TGI, %) at different days post-inoculation: 44.37%
A549 lung carcinoma; Day 29, 0.08mg i.v. (tail vein) twice weekly for 5 weeks
  Tumor growth inhibition rate (TGI, %) at different days post-inoculation: 2.07%
A549 lung carcinoma; Day 29, 0.12mg i.v. (tail vein) twice weekly for 5 weeks
  Tumor growth inhibition rate (TGI, %) at different days post-inoculation: 34.27%
A549 lung carcinoma; Day 29, 0.14mg i.v. (tail vein) twice weekly for 5 weeks
  Tumor growth inhibition rate (TGI, %) at different days post-inoculation: 31.80%
A549 lung carcinoma; Day 32, 0.08mg i.v. (tail vein) twice weekly for 5 weeks
  Tumor growth inhibition rate (TGI, %) at different days post-inoculation: 13.19%
A549 lung carcinoma; Day 32, 0.12mg i.v. (tail vein) twice weekly for 5 weeks
  Tumor growth inhibition rate (TGI, %) at different days post-inoculation: 33.27%
A549 lung carcinoma; Day 32, 0.14mg i.v. (tail vein) twice weekly for 5 weeks
  Tumor growth inhibition rate (TGI, %) at different days post-inoculation: 24.63%
A549 lung carcinoma; [5]
  T/C: greater than 40%
  tumor growth inhibition rate (calculated on the basis of tumor weight and tumor volume): less than 60%
[2]; [6]
  Tumor weight: 0.62 ± 0.55 g
  Tumor-weight inhibition rate, IRTW (%): 51.74%
[2]; Day 10, 0.12mg i.v. (tail vein) once weekly for 6 weeks
  Tumor growth inhibition rate (TGI, %) at different post-inoculation days: 41.17%
[2]; Day 13, 0.12mg i.v. (tail vein) once weekly for 6 weeks
  Tumor growth inhibition rate (TGI, %) at different post-inoculation days: 34.62%
[2]; Day 17, 0.12mg i.v. (tail vein) once weekly for 6 weeks
  Tumor growth inhibition rate (TGI, %) at different post-inoculation days: 37.16%
[2]; Day 20, 0.12mg i.v. (tail vein) once weekly for 6 weeks
  Tumor growth inhibition rate (TGI, %) at different post-inoculation days: 35.17%
[2]; Day 24, 0.12mg i.v. (tail vein) once weekly for 6 weeks
  Tumor growth inhibition rate (TGI, %) at different post-inoculation days: 43.86%
[2]; Day 27, 0.12mg i.v. (tail vein) once weekly for 6 weeks
  Tumor growth inhibition rate (TGI, %) at different post-inoculation days: 43.86%
[2]; Day 31, 0.12mg i.v. (tail vein) once weekly for 6 weeks
  Tumor growth inhibition rate (TGI, %) at different post-inoculation days: 44.19%
[2]; Day 34, 0.12mg i.v. (tail vein) once weekly for 6 weeks
  Tumor growth inhibition rate (TGI, %) at different post-inoculation days: 42.97%
[2]; Day 38, 0.12mg i.v. (tail vein) once weekly for 6 weeks
  Tumor growth inhibition rate (TGI, %) at different post-inoculation days: 40.97%
[2]; Day 41, 0.12mg i.v. (tail vein) once weekly for 6 weeks
  Tumor growth inhibition rate (TGI, %) at different post-inoculation days: 51.83%
[2]; end of the study (D41), tail-vein injection
  tumor growth inhibition rate calculated from tumor weight and tumor volume: < 60%
[3]
  Body-weight difference (g) between Day 41 and Day 6: 3.29 g
N87 gastric cancer; Day 9
  Inhibition rate (%) at different post-inoculation days: 17.5%
N87 gastric cancer; Day 11
  Inhibition rate (%) at different post-inoculation days: 3.5%
N87 gastric cancer; Day 13
  Inhibition rate (%) at different post-inoculation days: 10.2%
N87 gastric cancer; Day 16
  Inhibition rate (%) at different post-inoculation days: 24.1%
N87 gastric cancer; Day 18
  Inhibition rate (%) at different post-inoculation days: 32.9%
N87 gastric cancer; Day 20
  Inhibition rate (%) at different post-inoculation days: 36.4%
N87 gastric cancer; Day 23
  Inhibition rate (%) at different post-inoculation days: 34.6%
N87 gastric cancer; end of study
  Tumor weight: 0.1751 ± 0.13 g
N87 gastric cancer; inhibition rate of tumor weight
  IRTW%: 71.987%
[4]
  body weight of the mice (and spontaneous activity): started to decrease
